Data from article PMC11050070, “Chemical Modifications to Enhance the Drug Properties of a VIP Receptor Antagonist (ANT) Peptide” (International Journal of Molecular Sciences, 2024).
Where no end group is shown, it is not given here.

Experiment: Plasma stability T cell activation study
Format: in vitro ADME
Conditions: 200 μM peptide mixed 1:1 with healthy donors' plasma, 37 °C, aliquots at 24, 48, 72, 96 hrs; read-out pooled human T cell activation at 10 μM; three donors' plasma; retained up to 96 h (longest time tested); Figure S1
Protocol: 1.3 Plasma Stability T Cell Activation Study
200 μM ANT308 or 200 μM ANT308K-PEG were mixed with healthy donors’ plasma at 1:1 ratio, followed by incubation at 37 °C. Aliquots (150 μL) were collected at 24 hrs, 48 hrs, 72 hrs, and 96 hrs and stored at -80 °C before pooled human T cells activation assay. Assays were performed with three different donor ’s plasma.
Activated T cells Activated T cells
Non-Activated T cells Non-Activated T cells […]
Diffe rentDonors’ plasma Diffe rentDonors’ plasma
Pre-incubation Time ( hrs) Pre-incubation Time ( hrs)
Figure S1A-F: Plasma stability and human T cells activation. After incubation with healthy donors’ plasma at 37 °C for 24hrs, 48hrs, 72hrs, and 96hrs. 10 μM ANT308 (A,C,E) or 10 μM ANT308K-PEG (B,D,F) were directly mixed with isolated & pooled human T cells with the […]

time of incubation in human plasma after which the ability to activate human T cells is retained: ≥ 96 h
Substance: KPRRPYTSDYTRLRKQMAVKKYLNLILN-NH2 [ANT308]
